Assays:
[1] = test system: lens capsule; assay: Staining of the lens capsule in enucleated porcine eyes; details: injected into air-filled anterior chamber, removed after one minute; clear porcine lens as background
Experimental: Additionally, the staining characteristics of the lens capsule in enucleated porcine eyes with a postmortem time of nine hours were evaluated. The dyes were injected into the air-filled anterior chamber and removed by irrigation after one minute. Then, the cornea was removed and a capsulorhexis was performed with a bent needle. All procedures were taped on video.

[2] = Light absorbing properties (UV/VIS/NIR spectrometer); format: physicochemical; details: measured up to a content of 0.05% dye
Experimental: Light absorption was measured in 0.05% solutions, with BSS plus as a solvent medium. Light absorption was measured instantly after preparation of a stock solution of the dye using a UV/VIS/NIR Spectrometer (Lambda 900, Perkin Elmer) between 200 and 1000 nm.

[3] = test system: ARPE-19 cells; assay: Life-dead assay (propidium iodide / Hoechst 33342), ARPE-19 cells; format: cell-based; details: ARPE-19 cells, 0.2% and 0.02% dye, 24 hours after treatment, compared to BSS plus
Experimental: (§1) Confluent RPE and ARPE-19 cells were prepared and treated as described above. Cell viability was quantified based on a two-color fluorescence assay in which the nuclei of nonviable cells appear red because of staining by the membrane-impermeable dye propidium iodide (Sigma), whereas the nuclei of all cells were stained with the membrane-permeable dye Hoechst 33342 (Intergen, Purchase, N.Y.). […] For evaluation of cell viability, cells were washed in PBS and incubated with 2.0 μg/mL propidium iodide and 1.0 μg/mL Hoechst 33342 for 20 minutes at 37° C. Subsequently, cells were analyzed with an epifluorescence microscope (Axioskop; Zeiss, Göttingen, Germany). The labeled nuclei were then counted in fluorescence photomicrographs, and dead cells were expressed as a percentage of total nuclei in the field. The data are based on counts from three experiments performed in duplicate wells, with three to five documented representative fields per well.

[4] = test system: primary RPE cells; assay: Life-dead assay (propidium iodide / Hoechst 33342), primary RPE cells; format: cell-based; details: primary RPE cells, 0.2% and 0.02% dye, 24 hours after treatment, compared to BSS plus
Experimental: Invest Ophthalmol Vis Sci 2002; 43: 3575-82.
as §1

[5] = test system: vitreous; assay: Staining of the vitreous during pars plana vitrectomy in porcine eyes; format: in vivo; details: graded by two examiners
Experimental: All dyes were dissolved and diluted using balanced salt solution (BSS plus; Alcon Laboratories Inc., Fort Worth, Tex).
Experiments were performed in animals (porcine eyes) and humans after approval of the local ethics committee had been obtained. All experiments were performed in compliance with the Declaration of Helsinki.
Ophthalmic surgery consisted of a standard pars plana vitrectomy. First, the transparent vitreous was removed as completely as possible. Then fluid air exchange was performed in order to avoid an uncontrolled distribution of the dye in the vitreous cavity. The dye was then injected into the air filled globe. After a period of one minute, the dye was washed out by irrigation with BSS. This was followed by an injection of the dye in concentrations from 0.2% to 2%. The staining of the vitreous was graded by two examiners who also performed the surgical procedures.

[6] = test system: vitreous; assay: Staining of the vitreous during vitrectomy in humans using BPB (Example 1); format: in vivo; details: 0.2%
Experimental: All patients (n=9) gave their written informed consent before surgery. […] A standard three port pars plana vitrectomy was performed. First, the transparent vitreous was removed as thoroughly as possible using the vitrectomy probe. Then fluid air exchange was performed and a few drops of the dye (BPB, 0.2%) were injected. After one minute, the dye was washed out by irrigation.

[7] = test system: vitreous and posterior hyaloid; assay: Vitrectomy for idiopathic macular hole (Example 3); format: in vivo, humans
Source text: (§2) This study was approved by the local ethics committee and Institutional Review Board (IRB) and written informed consent was obtained from all patients. Six consecutive patients with idiopathic macular hole, 3 males and 3 females with a mean age of 68 were included. Holes were graded as stage 2 (n=3), stage 3 (n=2) and stage 4 (n=1). The dye was also used in four patients with retinal detachments, 2 females and 2 males with a mean age of 57 years.
(§3) Pre- and postoperatively, all patients underwent a complete clinical examination including measurement of best corrected visual acuity (VA), slit lamp examination, tonometry, and funduscopy using a 78 diopter lens (Volk Optical, Mentor, Ohio, USA). In macular hole patients, we additionally performed optical coherence tomography (OCT) (Stratus-OCT, Carl Zeiss Meditec, Jena, Germany), Goldmann perimetry, multifocal electroretinogram (ERG) and fundus photographs. Patients were seen one day before surgery and then in six weeks intervals. Postoperatively, ERG and Goldmann perimetry were performed at the six weeks follow-up visit and were not repeated if unremarkable.
Bromphenol blue powder was dissolved and diluted using BSS plus and sterilized using a 0.22 μm syringe filter. A final dye concentration of 0.2% was then injected into the eye. Vitrectomy first consisted of a core vitrectomy, followed by vitreous removal in the periphery in the area of the sclerotomy sites by indentation of the globe using a squint hook. Then an attempt was made to induce a posterior vitreous detachment by applying suction at the optic nerve head.
The dye was applied as follows: During pars plana vitrectomy for a macular hole a fluid air-exchange was performed prior to dye injection to achieve a maximum dye concentration on the retinal surface. Then, a few drops of the dye were injected over the posterior pole and the globe was gently moved to allow for an adequate dye distribution (FIG. 8A). This was followed by removal of excessive dye by irrigation after one minute. Then epiretinal tissue was removed if present and an attempt to peel the ILM using an end-gripping forceps was made in selected cases. Surgery was completed by fluid-air exchange and intraocular gas tamponade (hexafluoroethane (C2F6)) as previously described (Haritoglou C., Gandorfer A., Gass C. A., et al., “Indocyanine green-assisted peeling of the internal limiting membrane in macular hole surgery affects visual outcome: a clinicopathologic correlation”, Am J. Ophthalmol 2002; 134: 836-41). During surgery for retinal detachment the dye was applied after induction of a PVD and injection of approximately 1.5 ml heavy liquid (PFCL, perfluorocarbon, Fluoron GmbH, Neu-Ulm, Germany) and fluid-air exchange without removing PFCL (FIG. 8B). Using this approach, we obtained not only a higher dye concentration in the anterior segment of the eye as the dye can not be further diluted by PFCL, but we could also prevent an uncontrolled distribution especially in the subretinal space and excessive contact with the lens capsule, which may result in an unwanted staining effect. In addition we obtained a staining of the vitreous in the periphery as intended. C2F6 was used as an intraocular tamponade at the end of surgery. The staining characteristics were then evaluated by the surgeon.

[8] = test system: vitreous; assay: Vitrectomy for retinal detachment (Example 3); format: in vivo, humans
Source text: as §2
as §3, with “unremarkable. […]” for “unremarkable.”
The dye was applied as follows: During pars plana vitrectomy for a macular hole a fluid air-exchange was performed prior to dye injection to achieve a maximum dye concentration on the retinal surface. […] The staining characteristics were then evaluated by the surgeon.

[9] = test system: primary RPE cells; assay: MTT assay, primary RPE cells; details: 0.2% and 0.02% dye, 10 minutes exposure, compared to BSS plus control
Source text: In brief, whole eyes were thoroughly cleansed in 0.9% NaCl solution, immersed in 5% polyvinyl pyrrolidone iodine, and rinsed again in the sodiumchloride solution. The anterior segment from each donor eye was removed and the posterior poles were examined with the aid of a binocular stereomicroscope to confirm the absence of gross retinal disease. Next, the neural retinas were carefully peeled away from the RPE-choroid-sclera using fine forceps. The eye cup was rinsed with Ca^2+ and Mg^2+-free Hank's balanced salt solution, and filled with 0.25% trypsin (GIBCO, Karlsruhe, Germany) for 30 min at 37° C. The trypsin was carefully aspirated and replaced with Dulbecco's modified eagles medium (DMEM, Biochrom, Berlin, Germany) supplemented with 20% fetal calf serum (FCS, Biochrom). Using a pipette, the media was gently agitated, releasing the RPE into the media by avoiding damage to Bruch's membrane. The RPE cell solution was transferred to a 50 ml flask (Falcon, Wiesbaden, Germany) containing 20 ml of DMEM (Biochrom) supplemented with 20% FCS (Biochrom) and maintained at 37° C. and 5% carbon dioxide. […] After having grown to confluency (100%), primary RPE cells were subcultured and maintained in DMEM (Biochrom) supplemented with 10% FCS (Biochrom) at 37° C. and 5% carbon dioxide. Primary RPE of passage 3-6 and ARPE-19 cells were used for experiments.
For exposure of dyes RPE and ARPE-19 cells were kept for 24 hours under serum free conditions. After washing cells three times with PBS, cells were incubated for 10 minutes with 300 μl of BSS plus containing 0.2% or 0.02% of dye, respectively. […] The dye was then removed by carefully rinsing cells with BSS plus three times. After 24 hours incubation with serum containing media the cell proliferation assay was performed. […]
The tetrazolium dye-reduction assay (MTT; 3-[4,5-dimethylthiazol-2-yl]-2,5-diphenyl tetrazolium bromide;) was used to determine cell survival rate. […] Absorption was measured by a scanning multiwell spectrophotometer at 550 nm (Molecular Probes, Garching, Germany). […]

O=S1(=O)OC(c2cc(Br)c(O)c(Br)c2)(c2cc(Br)c(O)c(Br)c2)c2ccccc21 [Bromophenol blue, Bromophenole blue]
staining of the lens capsule in porcine eyes [1]: stained well | position of the long wavelength maximum, influence of dye concentration [2]: not influenced by the dye concentration | cell viability, nuclei of nonviable cells labeled with propidium iodide [3]: did not affect cell survival | cell viability, nuclei of nonviable cells labeled with propidium iodide [4]: did not affect cell survival | staining effect of the vitreous ([5]; dye concentration 0.2%): good | staining effect of the vitreous ([5]; dye concentration 2.0%): strong | complications of complete removal of the vitreous ([6]; humans): without complications | staining of vitreous remnants adherent to the retinal surface ([6]; washed out after one minute, patients with macular pucker or macular hole): bluish staining | staining of remnant vitreous in the periphery at the vitreous base ([7]; 0.2%, macular hole surgery): could be seen in all cases | staining of the retinal surface or the ILM ([7]; 0.2%, three cases with complete PVD and no epiretinal membrane): no staining of the retinal surface or the ILM | amplitudes in postoperative ERG examinations ([7]; in vivo): no affection of the amplitudes | loss of VA ([7]; in vivo): No loss of VA | peripheral visual field defects indicating dye related toxicity ([7]; in vivo): nor did we observe peripheral visual field defects | staining of the adherent posterior hyaloid membrane ([7]; macular hole patients with incomplete PVD): very useful | VA postoperatively ([7]; overall patients): 20/40 | VA preoperatively ([7]; overall patients): 20/100 | macular hole closure ([7]; second operation necessary in one case): All macular holes could be closed successfully | identification of peripheral vitreous remnants at the vitreous base and retinal breaks ([8]; 0.2%, injected onto PFCL bubble): helped to identify peripheral remnants of vitreous | reattachment of the retina ([8]; in vivo): could be achieved in all cases | cell survival of primary RPE cells (MTT) [9]: no influence on cell survival

Reference: US20080206149A1, “METHOD, DYE AND MEDICAMENT FOR STAINING THE INTERNAL LIMITING MEMBRANE, EPIRETINAL MEMBRANE, THE VITREOUS AND/OR THE CAPSULE OF AN EYE” (LUDWIG-MAXIMILIANS-UNIVERSITAT MUNCHEN, priority 2005, published 2008)
